Reference: patent publication EP1198478B1, “SOMATOSTATIN ANALOGS AND THEIR USE FOR THE TREATMENT OF CANCER” (Dabur Research Foundation, priority 2000, dated 2002)
Several values for one entry are separate records, joined by “and”; a condition that tells them apart may be missing. Equal values may be shown once.

What was measured:
[1] = test system: PTC (primary human colon cancer cell line); assay: MTT cytotoxicity assay, PTC cells; type: cell-based; details: 48 hours
Excerpt: (§1) The cytotoxic effect of peptides SEQ ID NO: 2, SEQ ID NO: 3, SEQ ID NO: 6, and SEQ ID NO: 9, was studied by MTT assay which is based on the principle of uptake of MTT [3-[4,5-dimethylthiazol-2-yl]-2,5-diphenyl tetrazolium bromide], a tetrazolium salt by the metabolically active cells where it is metabolized by active mitochondria into a blue colored formazan product which can be read spectrophotometrically. Briefly, tumor cells PTC (primary human colon cancer cell line), KB (Oral squamous), U87MG (Glioblastoma), HBL100 (Breast), HeP2 (Laryngeal), ECV304 (Endothelial), PA-1 (Ovary) and L132 (Lung) were incubated with the peptide analogs for 48 hours at 37°C in a 96-well culture plate, followed by the addition of 100 µg MTT and further incubation of 1 hour. The formazan crystals formed inside the cells were dissolved with a detergent comprising 10% Sodium dodecyl sulfate and 0.01 N HCl and optical density read on a multiscan ELISA reader. The optical density was directly proportional to the number of proliferating and metabolically active cells.

KB (Oral squamous) = assay: MTT cytotoxicity assay, KB cells; type: cell-based; details: 48 hours
Excerpt: as §1

U87MG (Glioblastoma) = assay: MTT cytotoxicity assay, U87MG cells; type: cell-based; details: 48 hours
Excerpt: as §1

HBL100 (Breast) = assay: MTT cytotoxicity assay, HBL100 cells; type: cell-based; details: 48 hours
Excerpt: as §1

HeP2 (Laryngeal) = assay: MTT cytotoxicity assay, HeP2 cells; type: cell-based; details: 48 hours
Excerpt: as §1

L132 (Lung) = assay: MTT cytotoxicity assay, L132 cells; type: cell-based; details: 48 hours
Excerpt: as §1

PA-1 (Ovary) = assay: MTT cytotoxicity assay, PA-1 cells; type: cell-based; details: 48 hours
Excerpt: as §1

ECV304 (Endothelial) = assay: MTT cytotoxicity assay, ECV304 cells; type: cell-based; details: 48 hours
Excerpt: as §1

[2] = test system: human colon adenocarcinoma (PTC) xenografts; assay: In vivo antitumor activity on primary tumor (colon) xenografted mice; design: species or system Balb/c athymic mice; details: for tumor volumes, Avg: average of three animals; for tumor volumes of individual tumor bearing animals: individual animals (IV, V, VI for SEQ ID NO: 2; I, II, III for SEQ ID NO: 3)
Description: The antitumor activity of SEQ ID NO:2 and SEQ ID NO:3 was studied in human colon adenocarcinoma (PTC) xenografts in nude mice. PTC tumor xenografts were grown in Balb/c athymic mice by subcutaneous inoculation of a single cell suspension of PTC cells (15 X10^6 cells/ 100µl). The tumor bearing animals were divided into 3 groups of three animals each including one group comprising untreated control animals. Treatment with novel somatostatin analogs was initiated when the average tumor volumes, as measured using a vernier caliper, were between 400-800 mm^3. Solutions of SEQ ID NO:2 and SEQ ID NO:3 were prepared at a concentration of 85 µg/ml and intravenously administered to the assigned group of tumor bearing animals at a dose of 8.5 µg/100 µl twice a day so that the total dose of […] was administered to each animal. The treatment was continued for a period of 10 days.
The antitumor activity of the compounds was monitored by measuring tumor volumes every fourth day using the formula W*W*L*.04 (W = smaller diameter, L = larger diameter). The percentage inhibition of tumor growth was calculated using the formula (1-tumor volume-treated/tumor volume control)* 100.

[3] = day 9, intravenously 8.5 µg/100 µl twice a day, 10 days
[4] = day 13, intravenously 8.5 µg/100 µl twice a day, 10 days
[5] = day 18, intravenously 8.5 µg/100 µl twice a day, 10 days
[6] = day 21, intravenously 8.5 µg/100 µl twice a day, 10 days

For “D-Phe-Cys-Tyr-D-Trp-Lys-Ac5c-Pen-Thr-NH2 [SEQ ID NO: 6]”, the Percentage cytotoxicity ([1]; 1nM) was 12±1.5%, the Percentage cytotoxicity ([1]; 10 nM) was 11 ± 7.1% and the Percentage cytotoxicity ([1]; 1µM) was 9 ± 2.1%. The Percentage cytotoxicity ([1]; 100n M) was 8 ± 5.2%, the Percentage cytotoxicity (KB (Oral squamous); 1nM) was 28.0 ± 1.2% and the Percentage cytotoxicity (KB (Oral squamous); 10 nM) was 23.0 ± 4.8%. The Percentage cytotoxicity (KB (Oral squamous); 1µM) was 12.9 ± 1.1%, the Percentage cytotoxicity (KB (Oral squamous); 100n M) was 19.0 ± 5.2% and the Percentage cytotoxicity (U87MG (Glioblastoma); 1nM) was 39.0 ± 3.5%. For the same substance, the Percentage cytotoxicity (U87MG (Glioblastoma); 10 nM) was 40.4 ± 2.4%, the Percentage cytotoxicity (U87MG (Glioblastoma); 1µM) was 39.5 ± 1.2% and the Percentage cytotoxicity (U87MG (Glioblastoma); 100n M) was 42.9 ± 1.4%. For the same substance, the Percentage cytotoxicity (HBL100 (Breast); 1nM) was 15.7 ± 4.5%, the Percentage cytotoxicity (HBL100 (Breast); 10 nM) was 14.5 ± 2.8% and the Percentage cytotoxicity (HBL100 (Breast); 1µM) was 8.0 ± 1.4%. It also gave a Percentage cytotoxicity (HBL100 (Breast); 100n M) of 12.6 ± 3.2%, a Percentage cytotoxicity (HeP2 (Laryngeal); 1nM) of 8.0 ± 3.6% and a Percentage cytotoxicity (HeP2 (Laryngeal); 10 nM) of 14.8 ± 4.4%. For the same substance, the Percentage cytotoxicity (HeP2 (Laryngeal); 1µM) was 10.6 ± 2.4%, the Percentage cytotoxicity (HeP2 (Laryngeal); 100n M) was 11.0 ± 2.5% and the Percentage cytotoxicity (L132 (Lung); 1nM) was 14.9 ± 1.2%. For the same substance, the Percentage cytotoxicity (L132 (Lung); 10 nM) was 25.7 ± 4.8%, the Percentage cytotoxicity (L132 (Lung); 1µM) was 13.7 ± 5.8% and the Percentage cytotoxicity (L132 (Lung); 100n M) was 22.9 ± 2.6%. The Percentage cytotoxicity (PA-1 (Ovary); 1nM) was 19.4 ± 1.0%, the Percentage cytotoxicity (PA-1 (Ovary); 10 nM) was 25.9 ± 1.4% and the Percentage cytotoxicity (PA-1 (Ovary); 1µM) was 8.0 ± 3.3%. For the same substance, the Percentage cytotoxicity (PA-1 (Ovary); 100n M) was 22.6 ± 2.2%, the Percentage cytotoxicity (ECV304 (Endothelial); 1nM) was 18.9 ± 3.9% and the Percentage cytotoxicity (ECV304 (Endothelial); 10 nM) was 24.9 ± 3.8%. It also gave a Percentage cytotoxicity (ECV304 (Endothelial); 1µM) of 7.9 ± 1.6% and a Percentage cytotoxicity (ECV304 (Endothelial); 100n M) of 13.9 ± 2.9%.
Substance “D-Phe-Cys-Tyr-D-Trp-Orn-Ac5c-Pen-Thr-NH2 [SEQ ID NO: 3]” has a Percentage cytotoxicity ([1]; 1nM) of 15 ± 1.5%, a Percentage cytotoxicity ([1]; 10 nM) of 11 ± 0.8% and a Percentage cytotoxicity ([1]; 1µM) of 13 ± 2.3%. The Percentage cytotoxicity ([1]; 100n M) was 13 ± 1.3%, the Percentage cytotoxicity (KB (Oral squamous); 1nM) was 29.8 ± 1.2% and the Percentage cytotoxicity (KB (Oral squamous); 10 nM) was 25.0 ± 4.6%. It also gave a Percentage cytotoxicity (KB (Oral squamous); 1µM) of 17.9 ± 1.3%, a Percentage cytotoxicity (KB (Oral squamous); 100n M) of 19.4 ± 5.2% and a Percentage cytotoxicity (U87MG (Glioblastoma); 1nM) of 44.2 ± 3.5%. The Percentage cytotoxicity (U87MG (Glioblastoma); 10 nM) was 45.0 ± 2.4%, the Percentage cytotoxicity (U87MG (Glioblastoma); 1µM) was 28.9 ± 1.2% and the Percentage cytotoxicity (U87MG (Glioblastoma); 100n M) was 42.4 ± 1.4%. The Percentage cytotoxicity (HBL100 (Breast); 1nM) was 14.6 ± 4.5%, the Percentage cytotoxicity (HBL100 (Breast); 10 nM) was 17.5 ± 2.8% and the Percentage cytotoxicity (HBL100 (Breast); 1µM) was 10.6 ± 1.4%. For the same substance, the Percentage cytotoxicity (HBL100 (Breast); 100n M) was 11.8±3.2%, the Percentage cytotoxicity (HeP2 (Laryngeal); 1nM) was 13.9 ± 3.6% and the Percentage cytotoxicity (HeP2 (Laryngeal); 10 nM) was 26.8 ± 4.4%. For the same substance, the Percentage cytotoxicity (HeP2 (Laryngeal); 1µM) was 10.0 ± 2.4%, the Percentage cytotoxicity (HeP2 (Laryngeal); 100n M) was 25.8 ± 2.5% and the Percentage cytotoxicity (L132 (Lung); 1nM) was 19.0 ± 2.2%. For the same substance, the Percentage cytotoxicity (L132 (Lung); 10 nM) was 28.6 ± 4.2%, the Percentage cytotoxicity (L132 (Lung); 1µM) was 19.8 ± 5.5% and the Percentage cytotoxicity (L132 (Lung); 100n M) was 25.9 ± 2.6%. The Percentage cytotoxicity (PA-1 (Ovary); 1nM) was 29.5 ± 1.0%, the Percentage cytotoxicity (PA-1 (Ovary); 10 nM) was 39.5 ± 3.4% and the Percentage cytotoxicity (PA-1 (Ovary); 1µM) was 19.5 ± 3.3%. For the same substance, the Percentage cytotoxicity (PA-1 (Ovary); 100n M) was 38.5 ± 2.2%, the Percentage cytotoxicity (ECV304 (Endothelial); 1nM) was 13.9 ± 3.9% and the Percentage cytotoxicity (ECV304 (Endothelial); 10 nM) was 23.9 ± 1.3%. For the same substance, the Percentage cytotoxicity (ECV304 (Endothelial); 1µM) was 14.9 ± 1.6%, the Percentage cytotoxicity (ECV304 (Endothelial); 100n M) was 15.9 ± 2.9% and the “tumor volumes, Avg” value ([2]; day 0, before treatment) was 0 mm^3. For the same substance, the “tumor volumes of individual tumor bearing animals” value ([2]; day 0, before treatment) was 0 mm^3, the “tumor volumes, Avg” value [2, 3] was 552 mm^3 and the “tumor volumes of individual tumor bearing animals” value [2, 3] was 560 mm^3 and 774 mm^3 and 324 mm^3. The “tumor volumes, Avg” value [2, 4] was 1758 mm^3, the “tumor volumes of individual tumor bearing animals” value [2, 4] was 1946 mm^3 and 1800 mm^3 and 1530 mm^3 and the “tumor volumes, Avg” value [2, 5] was 3674 mm^3. For the same substance, the “tumor volumes of individual tumor bearing animals” value [2, 5] was 3177 mm^3 and 3610 mm^3 and 4234 mm^3, the “percentage inhibition of tumor growth” value ([2]; day 21, as compared to controls, (1-tumor volume-treated/tumor volume control)* 100, intravenously 8.5 µg/100 µl twice a day, 10 days) was 54.7% and the “tumor volumes, Avg” value [2, 6] was 4080 mm^3. The “tumor volumes of individual tumor bearing animals” value [2, 6] was 0 mm^3 and 4939 mm^3 and 7301 mm^3.
